# Laboratory results taken from US20160310578A1, “METHOD OF ACCELERATING OSTEOGENESIS” (Fuji Nihon Seito Corporation, priority 2015, published 2016).
# How the values were obtained:
# [1] = system: osteoblastic cell line MC3T3-E1; test: Effect of DFA III on the number of osteoblastic cells (MTS, absorbance 490 nm) (Example 3); format: cell-based, mouse; conditions: for light absorbance at 490 nm (relative number of the cells): MC3T3-E1
# Procedure: The effect of DFA III on osteoblasts was examined using the osteoblastic cell line MC3T3-E1 isolated from […].
# First, 3×10^5 cells of MC3T3-E1 were inoculated in 96 wells containing 90 μL of α-MEM medium containing penicillin (manufactured by Sigma) and streptomycin (manufactured by Sigma) (200 μg/mL). DFA III was added to the culture solution so as to result in concentrations of 10 mM, 50 mM, and 100 mM, and the cells were cultured at 37° C. at a CO2 concentration of 5%. Culturing was performed for five wells each for each of the concentrations, and the number of the cells was counted on day 1, day 4, day 7, and day 14 after culturing.
# When counting the number of the cells, the cells were treated with 10 mM trypsin for 30 minutes under the same conditions as the cell culture, and then separated from the well. The cells were then added to 100 μL of MTS solution (manufactured by Promega Corp.), and incubated for 30 minutes under the same conditions as the cell culture, and a light absorbance at the wavelength of 490 nm was measured using a plate reader (“iMark Plate Reader” manufactured by Bio-Rad Laboratories, Inc.). The measured light absorbance represents the relative number of the cells.
# The average value of the three from the five wells cultured under the same conditions was taken as the measured value. As a control, the wells were used, where the medium of the wells to which DFA III was not added.
# [2] = system: ovariectomized animals (OVX); test: Bone tissue analysis by 3D CTR of the femoral articular head in OVX rats (Example 4); format: in vivo, Wistar rats
# Procedure: Animal experiments were conducted using ovariectomized animals (OVX). The animals used were 48 female Wistar rats with body weight of approximately 350 g. They were used in the experiments after being preliminarily reared on standard feed (CE-2 manufactured by CLEA Japan, Inc.) for one week after undergoing ovariectomy. All experiments were approved by the Animal Experiment Ethics Committee of CLEA Japan, Inc. and were conducted according to the policies thereof. The standard feed CE-2 manufactured by CLEA Japan, Inc. contains 1.06 g of calcium per 100 g of the feed as calcium carbonate and calcium iodate (according to 2009 periodic analysis average values listed on the website of CLEA Japan, Inc.). After preliminary feeding, 12 OVX rats were divided into groups of three rats each. Group A was reared on feed obtained by adding 3% collagen and 5% DFA III to the standard feed; Group B was reared on feed obtained by only adding the same amount of DFA III; Group C was reared on feed obtained by only adding the same amount of collagen; Group D was reared on the standard feed only. One week, two weeks, three weeks, and one month after the start of feeding, phenobarbital in a dose of 0.5 mg per 10 g of body weight was administered intraperitoneally to anesthetize the rats. Perfusion fixation was performed by injecting 4% paraformaldehyde solution diluted with cacodylate buffer of pH 7.4 and perfusing for 5 minutes from the left ventricle. After fixation, the articular head of the femur and the tibia of the lower limbs were extracted. 3D CTR images of the articular head were taken using a 3D Micro X-ray CTR-mCT2 for experimental animals (manufactured by Rigaku Corp.). From the 3D CTR images that were taken, five images of cross-sections in the same direction were selected, and the bone area and bone marrow area in each individual was measured and the average taken (Table 5 and FIG. 5).
# [3] = system: OVX rats with osseous defect in the epiphyseal area of the tibia; test: Recovery promoting effect in osseous defect of the tibia in OVX rats, 3D CTR (Example 5); format: in vivo, Wistar rats; conditions: one month
# Procedure: Animal experiments were conducted using ovariectomized animals (OVX). The animals used were 48 female Wistar rats with body weight of approximately 350 g. They were used in the experiments after being preliminarily reared on standard feed (CE-2 manufactured by CLEA Japan, Inc.) for one week after undergoing ovariectomy. All experiments were approved by the Animal Experiment Ethics Committee of CLEA Japan, Inc. and were conducted according to the policies thereof. The standard feed CE-2 manufactured by CLEA Japan, Inc. contains 1.06 g of calcium per 100 g of the feed as calcium carbonate and calcium iodate (according to 2009 periodic analysis average values listed on the website of CLEA Japan, Inc.).
# Using 12 OVX rats after preliminary feeding, phenobarbital in a dose of 0.5 mg per 10 g of body weight was administered intraperitoneally to anesthetize the rats. An incision was made in the skin on the upper portion of the knee joint, and then the knee joint was exposed, and a hole approximately 0.5 mm in diameter was made using a dental round bur in the epiphyseal area of the tibia, and then the incision was sutured.
# After the surgery, the rats were divided into four groups of three rats each. Group A was reared on feed obtained by adding 3% collagen and 5% DFA III to the standard feed; Group B was reared on feed obtained by only adding the same amount of DFA III; Group C was reared on feed obtained by only adding the same amount of collagen; Group D was reared on the standard feed only.
# After one month of feeding, the same anesthesia was performed, and perfusion fixation was performed with 4% paraformaldehyde from the left ventricle in the same manner as the femur experiment. After fixation, the region where the surgery was performed was extracted, and after washing with 0.8 M cacodylate buffer adjusted to pH 7.4, 3D CTR images were taken using the CTR apparatus mentioned above (FIG. 6).
# The bone area and the bone marrow area were measured using five images of the osseous defect in the same manner as in Example 4 (Table 6).
# [4] = 3% collagen and/or 5% DFA III in standard feed, one month, articular head of femur
# [5] = 3% collagen and/or 5% DFA III in standard feed
structure (smiles),measurement,setting,value
"OC[C@H]1O[C@@]2(CO[C@]3(CO)O[C@H](CO)[C@@H](O)[C@@H]3O2)[C@@H](O)[C@@H]1O [DFA III, Difructose anhydride III]",light absorbance at 490 nm (relative number of the cells),"[1]; 10 mM DFA III, 1 Day after culture",0.309
same,light absorbance at 490 nm (relative number of the cells),"[1]; 10 mM DFA III, 4 Day after culture",0.323
same,light absorbance at 490 nm (relative number of the cells),"[1]; 10 mM DFA III, 7 Day after culture",0.388
same,light absorbance at 490 nm (relative number of the cells),"[1]; 10 mM DFA III, 14 Day after culture",0.736
same,light absorbance at 490 nm (relative number of the cells),"[1]; 50 mM DFA III, 1 Day after culture",0.305
same,light absorbance at 490 nm (relative number of the cells),"[1]; 50 mM DFA III, 4 Day after culture",0.380
same,light absorbance at 490 nm (relative number of the cells),"[1]; 50 mM DFA III, 7 Day after culture",0.430
same,light absorbance at 490 nm (relative number of the cells),"[1]; 50 mM DFA III, 14 Day after culture",0.849
same,light absorbance at 490 nm (relative number of the cells),"[1]; 100 mM DFA III, 1 Day after culture",0.321
same,light absorbance at 490 nm (relative number of the cells),"[1]; 100 mM DFA III, 4 Day after culture",0.390
same,light absorbance at 490 nm (relative number of the cells),"[1]; 100 mM DFA III, 7 Day after culture",0.438
same,light absorbance at 490 nm (relative number of the cells),"[1]; 100 mM DFA III, 14 Day after culture",0.988
same,effect on cell division of osteoblasts,"[1]; MC3T3-E1, conclusion from Table 4",stimulates cell division of osteoblasts
same,cell number values versus control group,"[1]; day 1, day 4 and day 7 after culturing",control group exhibited higher values
same,cell number values versus control group,"[1]; day 14 after culturing, 10, 50 and 100 mM",higher values than the control group
same,Proportion of bone in articular head (%),"[2]; 3% collagen and/or 5% DFA III in standard feed, one month",56.1%
same,Bone area (average),[2]; [4],320.0 μm^2
same,Bone marrow area (average),[2]; [4],250.9 μm^2
same,Total area,[2]; [4],570.9 μm^2
same,"CTR images: compact bone and cancellous bone, comparison of the groups","[2]; one month, FIG. 4",No marked difference
same,increase of the proportion of bone in the articular head versus control Group D,"[2]; one month, compared with standard feed only",10.2%
same,more bone tissue than the group fed standard feed alone,[2]; summary of Example 4,approximately 10%
same,Bone area,[3]; [5],90.7 μm^2
same,Bone marrow area,[3]; [5],704.8 μm^2
same,Total area,[3]; [5],795.5 μm^2
same,Proportion of bone in all bone (%),[3],11.4%
same,proportion of new bone formation greater than control Group D,[3],4.6%
